Experimental data from patent US12257287B2, “Glucagon-derived peptide and use thereof” (Tianjin Institute of Pharmaceutical Research Co., Ltd., priority 2018, dated 2025).
Converted amounts (≈) assume the structure as drawn. Numbered stars: 1 amine (or outer) side, 2 acyl side, 3 side chain; on linkers, the order of the positions; unused ones are H or OH. Square brackets hold non-standard residues; d marks the D form. Side chains are listed from the residue outwards. Peptide text beside a SMILES is read from it. * marks the point of attachment. C18 diacid = O=C(O)CCCCCCCCCCCCCCCCC(=O)*; γGlu = O=C(O)[C@H](CCC(=O)[*:2])N[*:1]; AEEA = NCCOCCOCC(=O)O; Aib = CC(C)(N)C(=O)O

Legend:
[1] = molecular target: T1, GC receptor (Homo sapiens, UniProt P47871); experiment: GC receptor mediated cAMP production in vitro (HEK293 cells transfected with GC receptor); format: cell-based; conditions: 20 min at 37° C., read-out: GCGR (nM EC50)
T1 construct: expressed in transfected cells; host or cells: HEK293 cells
T1 sequence (P47871 26-477): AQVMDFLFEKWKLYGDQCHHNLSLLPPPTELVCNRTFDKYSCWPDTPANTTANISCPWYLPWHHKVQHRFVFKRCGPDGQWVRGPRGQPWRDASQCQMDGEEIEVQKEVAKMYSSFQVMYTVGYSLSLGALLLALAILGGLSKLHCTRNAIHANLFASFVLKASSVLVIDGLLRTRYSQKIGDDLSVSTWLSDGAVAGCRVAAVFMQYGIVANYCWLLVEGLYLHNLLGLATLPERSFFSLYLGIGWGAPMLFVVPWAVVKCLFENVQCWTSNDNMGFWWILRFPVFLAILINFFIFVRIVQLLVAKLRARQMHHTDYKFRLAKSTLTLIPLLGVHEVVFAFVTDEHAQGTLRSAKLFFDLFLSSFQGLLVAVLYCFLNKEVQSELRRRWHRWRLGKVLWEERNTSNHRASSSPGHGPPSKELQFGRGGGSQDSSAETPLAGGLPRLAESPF
Description: The medium was removed, the cells were lysed, and cAMP values were detected referring to the detection method described for the assay kit.

[2] = Effect on body weight of DIO mice after 14 days' administration; format: in vivo, C57BL/6J mice; conditions: DIO mice, 14 days, conclusions on Tables 3 and 5
Description: C57BL/6J mice (n=35), model group (n=30) were fed with H10060 high-fat diet to induce obesity (DIO), blank control group (n=5) were fed with standard diet, both for 34 weeks. One day before the first administration, the model group was randomly divided into groups according to their body weight (average body weight range 45.0-52.0 g), with 5 mice in each group, which respectively were model control group, positive control group (semaglutide), and test sample group (1 #-4 # are compound 1, compound 4, compound 6 and compound 22, respectively). The blank control group and model control group were given saline subcutaneously every day, while the positive control group and test sample group were administrated by subcutaneous injection every day for 14 days. The body weight of the animals was weighed and recorded every day, and the change rate of body weight (%) was calculated by comparing the body weight at the last administration day with the initial body weight. (initial body weight−last body weight)/initial body weight=body weight change rate (%). Calculation formula: […]
Calculated positive values indicate a decrease and negative values indicate an increase.
(§1) Methods are the same as that in Example 3, the test results of effects on body weight are shown in Table 5, and the effects on blood glucose are shown in Table 6. In the table, 5 #-9 # are compound 27, compound 35, compound 54, compound 57, and compound 66, respectively.

[3] = Glucose tolerance test in glucose-loaded DIO mice; format: in vivo; conditions: DIO mice, conclusions on Tables 4 and 6
Description: DIO mice fasted for 16 h, and 1 h after administration by subcutaneous injection, glucose solution (1 g/kg) was given intraperitoneally for glucose tolerance test. Blood glucose values were measured at 0.5, 1 and 1.5 h after glucose administration. The area under the blood glucose concentration curve (AUC) was calculated and compared with that of the model control group, and the blood glucose inhibition rate (%) was calculated.
as §1

[4] = Short-term administration: food intake and body weight in DIO mice; format: in vivo; conditions: 30 nmol/kg once every 24 h, twice, − decrease; for Rate of change in food intake (%): at 48 hours vs day before administration; for Body weight change: at 48 hours
Procedure, shortened: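 DIO mice (mean body weight 52.5 g), 5 per group, dosed at 30 nmol/kg every 24 h for two doses, in 10 mM PBS pH 7.4; controls received solvent. Food intake and body weight at 48 h expressed as change rate versus the day before dosing.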

[5] = physchem; format: physicochemical
[6] = Accelerated chemical stability in injection solvent system (HPLC-UV); format: physicochemical; conditions: 14 days, phosphate buffer pH 7.3 with Tween 80 and phenol, main peak area vs day 0
Description: The chemical stability of the compounds of the present invention in injection solution systems was evaluated by an accelerated stability test. Methods: an appropriate amount of compound of Example 1 was weighed, and dissolved in 10 mM pH8.5 sodium hydrogen phosphate buffer. The final pH value of the solution was adjusted to 7.3 with 0.1 N hydrochloric acid, and proper amounts of Tween 80 and phenol were added. The mixture was placed at 10° C. and 37° C. for 14 days, and detected by HPLC-UV. The main peak area was obtained by peak area normalization method, and the changes compared with day 0 were investigated. The HPLC detection method was the same as that in Example 6, and the mobile phase gradient was appropriately adjusted according to the situation of chromatographic peak separation.

[7] = pH 7.5, Solubility, pH 7.5, 10 mM phosphate buffer
[8] = pH 7.5, Solubility, pH 7.5, 20 mM phosphate buffer
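Throughout, for Solubility: compound added at 2 mg per mL of phosphate buffer, with the dissolved amount determined in the supernatant.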

With `CC[C@H](C)[C@H](NC(=O)[C@H](Cc1ccccc1)NC(=O)[C@H](CCC(=O)O)NC(=O)[C@H](CCCCN)NC(=O)[C@H](C)NC(=O)[C@H](C)NC(=O)[C@H](CCCNC(=N)N)NC(=O)[C@H](CCC(=O)O)NC(=O)[C@H](CCC(=O)O)NC(=O)[C@H](CC(C)C)NC(=O)[C@H](Cc1ccc(O)cc1)NC(=O)[C@H](CCCCN)NC(=O)[C@H](CO)NC(=O)[C@H](CCCCNC(=O)COCCOCCNC(=O)COCCOCCNC(=O)CC[C@H](NC(=O)CCCCCCCCCCCCCCCCC(=O)O)C(=O)O)NC(=O)[C@H](CC(=O)O)NC(=O)[C@H](CO)NC(=O)[C@@H](NC(=O)[C@H](Cc1ccccc1)NC(=O)[C@@H](NC(=O)CNC(=O)[C@H](CCC(N)=O)NC(=O)C(C)(C)NC(=O)[C@@H](N)Cc1c[nH]cn1)[C@@H](C)O)[C@@H](C)O)C(=O)N[C@@H](C)C(=O)N[C@@H](Cc1c[nH]c2ccccc12)C(=O)N[C@@H](CC(C)C)C(=O)N[C@@H](CCC(=O)O)C(=O)N[C@@H](C)C(=O)NCC(=O)NCC(=O)N1CCC[C@H]1C(=O)N[C@@H](CO)C(=O)N[C@@H](CO)C(=O)NCC(N)=O` [Compound 27] (H-H[Aib]QGTFTSDK([AEEA-AEEA-γGlu-C18 diacid])SKYLEERAAKEFIAWLEAGGPSSG-NH2; N-terminus assumed) the EC50 [1] was 0.014 nM, the “body weight reduction (in words)” value [2] was “significantly reduced body weight” and the “glucose tolerance / blood glucose lowering (in words)” value [3] was “significantly improved glucose tolerance”. The “Rate of change in food intake (%)” value [4] was −55%, the “Body weight change” value [4] was -1.9 g and the solubility [5, 7] was over 2000 µg/mL. For the same compound, the solubility [5, 8] was over 2000 µg/mL, the “Change in purity % (10° C.)” value [6] was −1.8% and the “Change in purity % (37° C.)” value [6] was −4.6%.
With `CCCCCCCCCCCCCCCC(=O)N[C@@H](CCC(=O)N[C@@H](CCC(=O)NCCCC[C@H](NC(=O)[C@H](C)NC(=O)[C@H](CCCNC(=N)N)NC(=O)[C@H](CCCCN)NC(=O)[C@H](CCC(=O)O)NC(=O)[C@H](CC(=O)O)NC(=O)[C@H](CC(C)C)NC(=O)[C@H](Cc1ccc(O)cc1)NC(=O)[C@H](CCCCN)NC(=O)[C@H](CO)NC(=O)[C@H](Cc1ccc(O)cc1)NC(=O)[C@H](CC(=O)O)NC(=O)[C@H](CO)NC(=O)[C@@H](NC(=O)[C@H](Cc1ccccc1)NC(=O)[C@@H](NC(=O)CNC(=O)[C@H](CCC(N)=O)NC(=O)C(C)(C)NC(=O)[C@@H](N)Cc1c[nH]cn1)[C@@H](C)O)[C@@H](C)O)C(=O)N[C@@H](CCC(=O)O)C(=O)N[C@@H](Cc1ccccc1)C(=O)N[C@H](C(=O)N[C@@H](C)C(=O)N[C@@H](Cc1c[nH]c2ccccc12)C(=O)N[C@@H](CC(C)C)C(=O)N[C@@H](CCC(=O)O)C(=O)N[C@@H](C)C(=O)NCC(=O)NCC(=O)N1CCC[C@H]1C(=O)N[C@@H](CO)C(=O)N[C@@H](CO)C(=O)NCC(N)=O)[C@@H](C)CC)C(=O)O)C(=O)O` [Compound 57] (HELM PEPTIDE1{H.[Aib].Q.G.T.F.T.S.D.Y.S.K.Y.L.D.E.K.R.A.K.E.F.I.A.W.L.E.A.G.G.P.S.S.G.[am]}|PEPTIDE2{[CCCCCCCCCCCCCCCC(=O)[*:2]].[gGlu].[gGlu]}$PEPTIDE1,PEPTIDE2,20:R3-3:R2$$$V2.0; N-terminus assumed) the EC50 [1] was 0.081 nM, the “body weight reduction (in words)” value [2] was “significantly reduced body weight” and the “glucose tolerance / blood glucose lowering (in words)” value [3] was “significantly improved glucose tolerance”. The “Rate of change in food intake (%)” value [4] was −71%, the “Body weight change” value [4] was -2.6 g and the solubility [5, 7] was 1460 µg/mL (≈ 343 µM). For the same compound, the solubility [5, 8] was 1310 µg/mL (≈ 308 µM), the solubility ([5]; pH 8, Solubility, pH 8.0, 10 mM phosphate buffer) was 1840 µg/mL (≈ 432 µM) and the solubility ([5]; pH 8, Solubility, pH 8.0, 20 mM phosphate buffer) was 1530 µg/mL (≈ 359 µM). The “Change in purity % (10° C.)” value [6] was −1.1% and the “Change in purity % (37° C.)” value [6] was −4.0%.
